According to ChEMBL document CHEMBL4825769, “Modulation of KRAS Mutant by Inhibiting PLK1 Kinase in Cancer Therapeutics” (ACS Med Chem Lett, 2021):
pIC50: −log10 of the molar value.

What was measured:
Wee1-like protein kinase = Wee1-like protein kinase (Homo sapiens, UniProt P30291); assay: Inhibition of human WEE1 using LSNLYHQGKFLQTFCGSPLYRRR peptide as substrate incubated for 40 mins in presence of [gamma-33P]ATP by scintillation counting method
[1] = target: Serine/threonine-protein kinase PLK1 (Homo sapiens, UniProt P53350); assay: Inhibition of human PLK1 incubated for 40 mins in presence of [gamma-33P]ATP by scintillation counting method
Sequence of Serine/threonine-protein kinase PLK1 (P53350 whole entry): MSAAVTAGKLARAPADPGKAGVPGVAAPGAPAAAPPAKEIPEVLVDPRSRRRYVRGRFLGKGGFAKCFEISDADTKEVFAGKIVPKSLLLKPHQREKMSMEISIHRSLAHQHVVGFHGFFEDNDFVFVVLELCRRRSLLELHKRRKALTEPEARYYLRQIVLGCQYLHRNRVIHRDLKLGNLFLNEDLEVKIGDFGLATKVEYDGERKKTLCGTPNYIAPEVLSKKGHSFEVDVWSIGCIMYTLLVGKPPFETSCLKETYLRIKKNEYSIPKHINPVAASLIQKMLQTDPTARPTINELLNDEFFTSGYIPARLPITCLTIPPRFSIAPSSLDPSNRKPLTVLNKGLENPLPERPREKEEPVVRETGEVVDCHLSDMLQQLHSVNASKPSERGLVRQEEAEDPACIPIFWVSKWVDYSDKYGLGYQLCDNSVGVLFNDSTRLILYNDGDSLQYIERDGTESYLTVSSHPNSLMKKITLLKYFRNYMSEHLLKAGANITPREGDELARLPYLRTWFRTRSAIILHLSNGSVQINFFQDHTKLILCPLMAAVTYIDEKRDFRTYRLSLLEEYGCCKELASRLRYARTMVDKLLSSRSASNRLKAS

[2] = Oral bioavailability in CD-1 mouse at 10 mg/kg; type: ADME, organism-based; details: in vivo

Sequence of Wee1-like protein kinase (P30291 whole entry): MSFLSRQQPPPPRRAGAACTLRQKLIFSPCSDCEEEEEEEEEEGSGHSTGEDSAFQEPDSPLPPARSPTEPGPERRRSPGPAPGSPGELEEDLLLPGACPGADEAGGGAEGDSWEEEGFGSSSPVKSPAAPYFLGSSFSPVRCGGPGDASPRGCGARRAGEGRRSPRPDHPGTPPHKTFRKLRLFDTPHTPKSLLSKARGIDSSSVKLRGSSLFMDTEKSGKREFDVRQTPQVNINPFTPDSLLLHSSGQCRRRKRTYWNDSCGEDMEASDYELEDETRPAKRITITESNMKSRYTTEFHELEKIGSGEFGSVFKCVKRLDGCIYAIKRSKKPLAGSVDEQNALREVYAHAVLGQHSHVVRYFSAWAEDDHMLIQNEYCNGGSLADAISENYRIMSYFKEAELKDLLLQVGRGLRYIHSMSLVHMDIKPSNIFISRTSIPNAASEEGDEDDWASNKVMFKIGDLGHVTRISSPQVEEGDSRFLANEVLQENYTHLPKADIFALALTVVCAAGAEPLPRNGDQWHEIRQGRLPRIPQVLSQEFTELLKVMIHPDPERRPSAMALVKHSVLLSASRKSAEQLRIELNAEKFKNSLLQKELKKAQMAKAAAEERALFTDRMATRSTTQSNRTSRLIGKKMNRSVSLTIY

pIC50 (Wee1-like protein kinase) | pIC50 [1] | bioavailability [2] [%] | Compound
7.28 | 7.52 | – | CC(C)(O)c1cccc(-n2cc(F)c3cnc(Nc4ccc(NC(=O)C5CCOCC5)cc4)nc32)n1
7.72 | 7.62 | – | CN1CCN(c2ccc(Nc3ncc4c(F)cn(-c5cccc(C6(F)COC6)n5)c4n3)cc2)CC1
7.72 | 7.41 | – | CCN1CCC(Oc2ccc(Nc3ncc4c(F)cn(-c5cccc(C(C)(C)O)n5)c4n3)cc2)CC1
7.62 | 7.52 | – | CC(C)(O)c1cccc(-n2cc(F)c3cnc(Nc4ccc(N5C[C@@H]6C[C@H]5CN6)cc4)nc32)n1
7.35 | 8.05 | – | CC(C)(O)c1cccc(-n2cc(F)c3cnc(Nc4ccc(C(=O)NC5CCOCC5)cc4)nc32)n1
7.48 | 7.23 | – | CN1CCC(NC(=O)c2ccc(Nc3ncc4ccn(-c5cccc(C(C)(C)O)n5)c4n3)cc2)CC1
7.41 | 7.54 | – | CN1CCC(NC(=O)c2ccc(Nc3ncc4c(F)cn(-c5cccc(C(C)(C)O)n5)c4n3)cc2)CC1
7.48 | 7.47 | – | CCN1CCC(NC(=O)c2ccc(Nc3ncc4c(F)cn(-c5cccc(C(C)(C)O)n5)c4n3)cc2)CC1
7.68 | 7.72 | – | CC(C)(O)c1cccc(-n2cc(F)c3cnc(Nc4ccc(N5C[C@H]6C[C@@H]5CN6)cc4)nc32)n1
7.59 | 6.42 | > 90 | CN1CCN(c2ccc(Nc3ncc4c(F)cn(-c5cccc(N=S(C)(C)=O)n5)c4n3)cc2)CC1
7.28 | 7.22 | – | CC(C)(O)c1cccc(-n2cc(F)c3cnc(Nc4ccc(N5CCNCC5)cc4)nc32)n1
7.20 | 7.21 | – | CC(C)(O)c1cccc(-n2cc(F)c3cnc(Nc4ccc(N5CCNC6(CC6)C5)cc4)nc32)n1
